Target: T1, CCR1 (Homo sapiens, UniProt P32246)
T1 construct: a monocytic derived cell line that endogenously expresses CCR1; host or cells: THP-1 cells
T1 sequence (P32246 1-355): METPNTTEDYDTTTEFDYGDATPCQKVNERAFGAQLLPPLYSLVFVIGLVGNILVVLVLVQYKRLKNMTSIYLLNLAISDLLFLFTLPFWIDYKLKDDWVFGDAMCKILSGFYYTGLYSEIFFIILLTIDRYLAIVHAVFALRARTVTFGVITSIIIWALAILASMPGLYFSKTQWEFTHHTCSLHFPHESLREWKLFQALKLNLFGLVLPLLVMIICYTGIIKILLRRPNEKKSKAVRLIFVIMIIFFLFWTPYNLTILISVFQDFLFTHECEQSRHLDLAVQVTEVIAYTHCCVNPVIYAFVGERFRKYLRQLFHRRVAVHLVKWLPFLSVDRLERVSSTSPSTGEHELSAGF
Test: CCR1 inhibition (THP-1 FLIPR assay / THP-1 whole cell radioligand binding assay; the patent does not say which gave the values)
Type: cell-based
Settings: threshold list, less than 100 nm; compounds of Table 1; read-out: inhibitory activity
Description: The primary screening assay is a FLIPR® (Fluorometric Imaging Plate Reader, available from Molecular Devices Corporation, Sunnyvale, Calif.) assay using THP-1 cells (ATCC, Catalog No. TIB 202), a monocytic derived cell line that endogenously expresses CCR1.
The cells were resuspended at 1×10^6 cells/ml in dye loading media (growth media (RPMI+10% FBS (Fetal Bovine serum)+5.5×10^−5M 2-mercaptoethanol)+10 mM HEPES (N-2-hydroxyethylpiperazine-N′-2-ethane-sulfonic acid)+2.5 mM probenecid+fluo-3 (1:250)). The cells were incubated for 1 hour at 37° C. and then washed in FLIPR wash buffer (100 mL 10× HBSS (Hanks Buffered Saline Solution) (w/Ca++/Mg++)+20 mL 1M HEPES+1 g BSA+10 mL 250 mM probenecid+water (to make 1 L)) and plated at 50,000 cells/well in black/clear 384 well plates. The plates were transferred to FLIPR where the ability of different concentrations of compounds to inhibit RANTES induced calcium flux was assessed. Inhibition of the CCR1 response was reflected by a decrease of the fluorescence signal relative to the positive controls (RANTES alone).
THP-1 Whole Cell Radioligand Binding Assay
The cells were washed with PBS (phosphate buffered saline) and resuspended in binding buffer (10 mM HEPES pH 7.2, 1× HBSS (w/Ca^2+, Mg^2+) 0.5% BSA, 0.02% Na-azide) at 4×10^6 cells/ml (for 200, 000 cells/well). Cells were incubated with 0.1 to 0.2 nM [^125I]-labeled MIP-1α with or without unlabeled competitor (MIP-1α) or various concentrations of compounds for 60 minutes at room temperature. The assay was terminated by vacuum filtration through glass fiber filters (GF/B, Packard) which were presoaked in 0.3% polyethyleneimine. The filters were washed with wash buffer (10 mM HEPES, pH 7.2, 1 mM CaCl2, 5 mM MgCl2 0.5M NaCl), dried and the amount of bound radioactivity was determined by scintillation counting.

| SMILES | IC50 |
| --- | --- |
| O=C(c1ccc(Cl)cc1)N1CCN([C@H]2CN(c3ncnc4cnccc34)C[C@@H]2O)CC1 (racemic) [Example 182, 4-[4-(4-chlorobenzoyl)piperazin-1-yl]-1-pyrido[3,4-d]pyrimidin-4-ylpyrrolidin-3-ol] | < 100 nM |
| Nc1ccc2nc(C(F)(F)F)nc(N3C[C@H](O)[C@@H](N4CCN(C(=O)c5ccc(Cl)cc5)CC4)C3)c2c1 (stereo in doubt) [Example 186, 1-[6-amino-2-(trifluoromethyl)quinazolin-4-yl]-4-[4-(4-chlorobenzoyl)piperazin-1-yl]pyrrolidin-3-ol] | < 100 nM |
| O=C(c1ccc(Cl)cc1)N1CCN([C@@H]2CN(c3ccnc4cc(C(F)(F)F)ccc34)C[C@H]2O)CC1 [Example 12, 4-[4-(4-chlorobenzoyl)piperazin-1-yl]-1-[7-(trifluoromethyl)quinolin-4-yl]pyrrolidin-3-ol] | < 100 nM |
| CCc1cc(C(F)(F)F)nc(N2C[C@@H](O)[C@H](N3CCN(C(=O)c4ccc(Cl)cc4)CC3)C2)n1 (stereo in doubt) [Example 121, 4-[4-(4-chlorobenzoyl)piperazin-1-yl]-1-[4-ethyl-6-(trifluoromethyl)pyrimidin-2-yl]pyrrolidin-3-ol] | < 100 nM |
| O[C@@H]1CN(c2ccnc3cc(Cl)ccc23)C[C@H]1N1CCN(Cc2ccc(Cl)cc2)CC1 [Example 61, (3R,4R)-4-[4-(4-chlorobenzyl)piperazin-1-yl]-1-(7-chloroquinolin-4-yl)pyrrolidin-3-ol] | < 100 nM |
| COC(=O)c1ccc2nc(C(F)(F)F)nc(N3C[C@@H](O)[C@H](N4CCN(C(=O)c5ccc(Cl)cc5)CC4)C3)c2c1 (stereo in doubt) [Example 180, methyl 4-{3-[4-(4-chlorobenzoyl)piperazin-1-yl]-4-hydroxypyrrolidin-1-yl}-2-(trifluoromethyl)quinazoline-6-carboxylate] | < 100 nM |
| Cc1nc(C(F)(F)F)nc(N2C[C@@H](O)[C@H](N3CCN(C(=O)c4ccc(Cl)cc4)CC3)C2)c1C (stereo in doubt) [Example 119, 4-[4-(4-chlorobenzoyl)piperazin-1-yl]-1-[5,6-dimethyl-2-(trifluoromethyl)pyrimidin-4-yl]pyrrolidin-3-ol] | < 100 nM |

Other lines, results leading:

| IC50 | SMILES |
| --- | --- |
| < 100 nM | O=C(c1ccc(Cl)cc1)N1CCN([C@@H]2CN(c3ncnc4cc(F)ccc34)C[C@H]2O)CC1 (stereo in doubt) [Example 86, 4-[4-(4-chlorobenzoyl)piperazin-1-yl]-1-(7-fluoroquinazolin-4-yl)pyrrolidin-3-ol] |
| < 100 nM | O=C(c1ccc(Cl)cc1)N1CCN([C@H]2CN(c3nccc(C(F)(F)F)n3)C[C@@H]2O)CC1 [Example 68, (3S,4S)-4-[4-(4-chlorobenzoyl)piperazin-1-yl]-1-[4-(trifluoromethyl)pyrimidin-2-yl]pyrrolidin-3-ol] |
| < 100 nM | O[C@@H]1CN(c2ncnc3cc(Cl)ccc23)C[C@H]1N1CCN(Cc2ccc(F)cc2)CC1 (stereo in doubt) [Example 115, 1-(7-chloroquinazolin-4-yl)-4-[4-(4-fluorobenzyl)piperazin-1-yl]pyrrolidin-3-ol] |
| < 100 nM | O[C@H]1CN(c2ncnc3cc(Cl)ccc23)C[C@@H]1N1CCC(Oc2ccc(Cl)cc2)CC1 (stereo in doubt) [Example 80, 4-[4-(4-chlorophenoxy)piperidin-1-yl]-1-(7-chloroquinazolin-4-yl)pyrrolidin-3-ol] |
| < 100 nM | O=C(c1ccc(Cl)cc1)N1CCN([C@@H]2CN(c3cc(C(F)(F)F)cc(C(F)(F)F)c3)C[C@H]2O)CC1 (stereo in doubt) [Example 113, 1-[3,5-bis(trifluoromethyl)phenyl]-4-[4-(4-chlorobenzoyl)piperazin-1-yl]pyrrolidin-3-ol] |
| < 100 nM | Cc1cc(C(F)(F)F)nc(N2C[C@H](O)[C@@H](N3CCN(C(=O)c4ccc(Cl)cc4)CC3)C2)n1 [Example 150, (3S,4S)-4-[4-(4-chlorobenzoyl)piperazin-1-yl]-1-[4-methyl-6-(trifluoromethyl)pyrimidin-2-yl]pyrrolidin-3-ol] |
